Test results as given in ChEMBL document CHEMBL1139637, “Synthesis, X-ray crystallographic analysis, and antitumor activity of 1-acyl-3,6-disubstituted phenyl-1,4-dihydro-1,2,4,5-tetrazines” (2005).

Key:
P388 [1] = experiment: Inhibition ratio against the growth of P-388 cells at 10e-7 mol/L concentration determined by MTT method; assay type: functional, Mus musculus
P388 [2] = experiment: Inhibition ratio against the growth of P-388 cells at 10e-5 mol/L concentration determined by MTT method; assay type: functional, Mus musculus
P388 [3] = experiment: Inhibition ratio against the growth of P-388 cells at 10e-4 mol/L concentration determined by MTT method; assay type: functional, Mus musculus
A549 [4] = experiment: Inhibition ratio against the growth of A-549 cells at 10e-5 mol/L concentration determined by SRB method; assay type: functional, Homo sapiens
P388 [5] = experiment: Inhibition ratio against the growth of P-388 cells at 10e-6 mol/L concentration determined by MTT method; assay type: functional, Mus musculus
A549 [6] = experiment: Inhibition ratio against the growth of A-549 cells at 10e-7 mol/L concentration determined by SRB method; assay type: functional, Homo sapiens
A549 [7] = experiment: Inhibition ratio against the growth of A-549 cells at 10e-4 mol/L concentration determined by SRB method; assay type: functional, Homo sapiens
A549 [8] = experiment: Inhibition ratio against the growth of A-549 cells at 10e-8 mol/L concentration determined by SRB method; assay type: functional, Homo sapiens
A549 [9] = experiment: Inhibition ratio against the growth of A-549 cells at 10e-6 mol/L concentration determined by SRB method; assay type: functional, Homo sapiens
P388 [10] = experiment: Inhibition ratio against the growth of P-388 cells at 10e-8 mol/L concentration determined by MTT method; assay type: functional, Mus musculus

Compound	Inhibition ratio (P388 [1])	Inhibition ratio (P388 [2])	Inhibition ratio (P388 [3])	Inhibition ratio (A549 [4])	Inhibition ratio (P388 [5])	Inhibition ratio (A549 [6])	Inhibition ratio (A549 [7])	Inhibition ratio (A549 [8])	Inhibition ratio (A549 [9])	Inhibition ratio (P388 [10])
CC(C)C(=O)N1N=C(c2ccccc2)NN=C1c1ccccc1	24.9	61.1	82.5	46.6	52	29.6	83.8	29.5	38.7	46.9
O=C(CCl)N1N=C(c2ccc(C(F)(F)F)cc2)NN=C1c1ccc(C(F)(F)F)cc1	11.3	49.4	98.4	64.6	2.2	0	95.5	0	0	0
CCC(=O)N1N=C(c2ccc(C(F)(F)F)cc2)NN=C1c1ccc(C(F)(F)F)cc1	6.3	21.1	68	48.1	6.7	0	84.7	9	21.7	0
CC(=O)N1N=C(c2ccccc2)NN=C1c1ccccc1	5.5	10.9	62.7	0	6.6	0	85.1	0	0	9.2
O=C(CCl)N1N=C(c2ccccc2)NN=C1c1ccccc1	3.6	100	99.1	95.8	3.9	4.1	95.4	13	35.3	0
CCC(=O)N1N=C(c2ccccc2)NN=C1c1ccccc1	7.7	9.8	30.9	11.1	7.6	12.3	71.5	0	6.2	8.5
CC(C)C(=O)N1N=C(c2ccc(C(F)(F)F)cc2)NN=C1c1ccc(C(F)(F)F)cc1	16.2	26.9	42.2	21	15	0	79.8	0	0	13.4
CC(=O)N1N=C(c2ccc(C(F)(F)F)cc2)NN=C1c1ccc(C(F)(F)F)cc1	5	21.5	50.6	63.6	1.1	0	91.1	0	0	0
